The results in this text go back to ChEMBL document CHEMBL1139415, “Highly functionalized 7-azaindoles as selective PPAR gamma modulators” (Bioorg Med Chem Lett, 2008).

Sequence of Thromboxane A2 receptor (Homo sapiens) (P21731 whole entry): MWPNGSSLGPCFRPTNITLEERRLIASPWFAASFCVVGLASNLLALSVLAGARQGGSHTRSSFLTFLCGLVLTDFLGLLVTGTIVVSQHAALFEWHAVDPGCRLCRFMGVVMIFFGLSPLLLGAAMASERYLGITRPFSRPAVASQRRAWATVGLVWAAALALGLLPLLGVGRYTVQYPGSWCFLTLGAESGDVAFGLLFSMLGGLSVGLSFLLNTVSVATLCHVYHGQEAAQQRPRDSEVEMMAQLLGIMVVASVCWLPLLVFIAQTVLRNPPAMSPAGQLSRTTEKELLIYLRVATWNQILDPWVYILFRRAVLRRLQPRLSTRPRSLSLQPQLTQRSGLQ

One data set has as its system Mus musculus. Put plainly: Antiglycemic activity in db/db mouse assessed as glucose correction at 50 mg/kg, po administered daily for 11 days. It counts as functional.
Conditions: not given
`COc1ccc(C(=O)c2c(C)n(Cc3cc(O[C@@H](C)C(=O)O)ccc3F)c3nc(OC)ccc23)cc1`: the Activity is reported as 34%.

Tested on in a further data set: not listed separately
Put plainly: Half life in Sprague-Dawley rat at 0.5 mg, iv and 2.0 mg, po. It counts as ADME, organism-based. The note with it: in vivo.
Regarding `COc1ccc(C(=O)c2c(C)n(Cc3cc(O[C@@H](C)C(=O)O)ccc3F)c3ncccc23)cc1`, the half-life was 1.8 h.
On the same count and under the same terms, the same measure for `COc1ccc(C(=O)c2c(C)n(Cc3cccc(O[C@@H](C)C(=O)O)c3)c3nc(C)ccc23)cc1`: 2.4 h.
On the same count and under the same terms, the same measure for `Cc1c(Oc2ccc(Cl)cc2)c2cccnc2n1Cc1cc(O[C@@H](C)C(=O)O)ccc1F`: 1.6 h; for `Cc1c(Oc2ccc(Cl)cc2)c2ccc(F)nc2n1Cc1ccc(Cl)c(O[C@@H](C)C(=O)O)c1`: 0.8 h; for `COc1ccc(C(=O)c2c(C)n(Cc3cc(O[C@@H](C)C(=O)O)ccc3F)c3nc(OC)ccc23)cc1`: 1.4 h.

A further data set relates to Mus musculus. Put plainly: Antiglycemic activity in db/db mouse assessed as glucose correction at 30 mg/kg, po administered daily for 11 days. It counts as functional.
Conditions: not given
On to `Cc1c(Oc2ccc(Cl)cc2)c2ccc(F)nc2n1Cc1ccc(Cl)c(O[C@@H](C)C(=O)O)c1`, for which the Activity is reported as 30%.
The same measure, in the same setting: the same measure for `COc1ccc(C(=O)c2c(C)n(Cc3cc(O[C@@H](C)C(=O)O)ccc3F)c3nc(OC)ccc23)cc1`: 35%.

Tested on in the next data set: not listed separately
Put plainly: Bioavailability in Sprague-Dawley rat at 0.5 mg, iv and 2.0 mg, po. The class given is ADME, organism-based. As to conditions: in vivo.
`COc1ccc(C(=O)c2c(C)n(Cc3cc(O[C@@H](C)C(=O)O)ccc3F)c3ncccc23)cc1` came in with a bioavailability of 51%.
On the same count and under the same terms, the same measure for `COc1ccc(C(=O)c2c(C)n(Cc3cccc(O[C@@H](C)C(=O)O)c3)c3nc(C)ccc23)cc1`: 80%.
Still for that read-out and setting: the same measure for `Cc1c(Oc2ccc(Cl)cc2)c2cccnc2n1Cc1cc(O[C@@H](C)C(=O)O)ccc1F`: 77%.
As for `Cc1c(Oc2ccc(Cl)cc2)c2ccc(F)nc2n1Cc1ccc(Cl)c(O[C@@H](C)C(=O)O)c1`, the bioavailability came out at 47%.
Same read-out and setting: the same measure for `COc1ccc(C(=O)c2c(C)n(Cc3cc(O[C@@H](C)C(=O)O)ccc3F)c3nc(OC)ccc23)cc1`: 37%.

The target in another data set is T1, Peroxisome proliferator-activated receptor gamma (Homo sapiens, UniProt P37231).
T1 sequence (P37231 whole entry): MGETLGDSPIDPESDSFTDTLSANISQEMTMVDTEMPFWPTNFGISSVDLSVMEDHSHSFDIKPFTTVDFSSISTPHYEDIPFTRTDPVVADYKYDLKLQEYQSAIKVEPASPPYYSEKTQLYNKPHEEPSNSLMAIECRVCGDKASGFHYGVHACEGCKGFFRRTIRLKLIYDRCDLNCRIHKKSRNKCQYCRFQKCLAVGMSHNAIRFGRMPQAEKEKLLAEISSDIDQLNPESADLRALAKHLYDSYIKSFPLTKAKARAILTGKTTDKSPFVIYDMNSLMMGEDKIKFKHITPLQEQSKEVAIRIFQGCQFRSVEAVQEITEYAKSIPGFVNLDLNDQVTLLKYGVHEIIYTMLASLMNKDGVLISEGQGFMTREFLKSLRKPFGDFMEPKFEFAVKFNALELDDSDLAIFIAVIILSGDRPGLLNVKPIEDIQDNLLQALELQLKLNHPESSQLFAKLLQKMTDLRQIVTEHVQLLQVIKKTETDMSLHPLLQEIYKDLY
Nature of the data set: Agonist activity at human PPARgamma receptor expressed in african green monkey COS cells after 48 hrs by GAL4 transactivation assay. The class given is functional, cell-based.
Conditions: not given
Compound `COc1ccc(C(=O)c2c(C)n(Cc3cc(O[C@@H](C)C(=O)O)ccc3F)c3ncccc23)cc1` showed a half-maximal effective concentration (EC50) of 0.003 µM.
For the compound `COc1ccc(C(=O)c2c(C)n(Cc3cccc(O[C@@H](C)C(=O)O)c3)c3nc(C)ccc23)cc1`, the EC50 worked out at 0.009 µM.
On the same count and under the same terms, the same measure for `Cc1c(Oc2ccc(Cl)cc2)c2cccnc2n1Cc1cc(O[C@@H](C)C(=O)O)ccc1F`: 0.156 µM; for `Cc1c(Oc2ccc(Cl)cc2)c2ccc(F)nc2n1Cc1ccc(Cl)c(O[C@@H](C)C(=O)O)c1`: 0.004 µM.
Same read-out and setting: the same measure for `COc1ccc(C(=O)c2c(C)n(Cc3cc(O[C@@H](C)C(=O)O)ccc3F)c3nc(OC)ccc23)cc1`: 0.001 µM.

In a further data set the target is T1, Peroxisome proliferator-activated receptor gamma. Nature of the data set: Displacement of [3H]2AD-5075 from GST-tagged human PPARgamma receptor expressed in Escherichia coli BL21.
Conditions: not given
A general note: Displacement assays read how much labelled ligand stays bound in the presence of the test substance.
Take `COc1ccc(C(=O)c2c(C)n(Cc3cc(O[C@@H](C)C(=O)O)ccc3F)c3ncccc23)cc1`: the IC50 amounted to 0.005 µM.
Still for that read-out and setting: the same measure for `COc1ccc(C(=O)c2c(C)n(Cc3cccc(O[C@@H](C)C(=O)O)c3)c3nc(C)ccc23)cc1`: 0.016 µM; for `Cc1c(Oc2ccc(Cl)cc2)c2cccnc2n1Cc1cc(O[C@@H](C)C(=O)O)ccc1F`: 0.054 µM.
Still for that read-out and setting: the same measure for `Cc1c(Oc2ccc(Cl)cc2)c2ccc(F)nc2n1Cc1ccc(Cl)c(O[C@@H](C)C(=O)O)c1`: 0.003 µM; for `COc1ccc(C(=O)c2c(C)n(Cc3cc(O[C@@H](C)C(=O)O)ccc3F)c3nc(OC)ccc23)cc1`: 0.002 µM.

Tested on in a further data set: not listed separately
Put plainly: Clearance in Sprague-Dawley rat at 0.5 mg, iv and 2.0 mg, po. The class given is ADME, organism-based. As to conditions: in vivo.
The compound `COc1ccc(C(=O)c2c(C)n(Cc3cc(O[C@@H](C)C(=O)O)ccc3F)c3ncccc23)cc1` yielded a clearance of 31.7 mL/min/kg.
Still for that read-out and setting: the same measure for `COc1ccc(C(=O)c2c(C)n(Cc3cccc(O[C@@H](C)C(=O)O)c3)c3nc(C)ccc23)cc1`: 28 mL/min/kg; for `Cc1c(Oc2ccc(Cl)cc2)c2cccnc2n1Cc1cc(O[C@@H](C)C(=O)O)ccc1F`: 22.1 mL/min/kg; for `Cc1c(Oc2ccc(Cl)cc2)c2ccc(F)nc2n1Cc1ccc(Cl)c(O[C@@H](C)C(=O)O)c1`: 23 mL/min/kg.
As to `COc1ccc(C(=O)c2c(C)n(Cc3cc(O[C@@H](C)C(=O)O)ccc3F)c3nc(OC)ccc23)cc1`, the clearance is 7.4 mL/min/kg.

The target of the next data set is T2, Peroxisome proliferator-activated receptor delta (Homo sapiens, UniProt Q03181).
T2 sequence (Q03181 whole entry): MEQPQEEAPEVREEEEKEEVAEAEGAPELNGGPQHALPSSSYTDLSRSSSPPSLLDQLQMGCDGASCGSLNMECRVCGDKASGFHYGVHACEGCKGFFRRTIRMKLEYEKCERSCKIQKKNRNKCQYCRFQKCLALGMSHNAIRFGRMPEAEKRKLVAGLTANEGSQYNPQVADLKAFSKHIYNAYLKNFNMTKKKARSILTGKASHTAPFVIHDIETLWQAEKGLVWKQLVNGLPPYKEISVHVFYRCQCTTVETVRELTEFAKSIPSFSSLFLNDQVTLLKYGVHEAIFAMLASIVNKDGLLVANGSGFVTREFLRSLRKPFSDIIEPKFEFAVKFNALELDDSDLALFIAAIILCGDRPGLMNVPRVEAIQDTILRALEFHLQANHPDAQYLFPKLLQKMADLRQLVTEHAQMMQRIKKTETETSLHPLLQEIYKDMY
Put plainly: Binding affinity to PPARdelta.
Conditions: not given
On to `COc1ccc(C(=O)c2c(C)n(Cc3cc(O[C@@H](C)C(=O)O)ccc3F)c3ncccc23)cc1`, for which the IC50 was > 50 µM.
Take `COc1ccc(C(=O)c2c(C)n(Cc3cccc(O[C@@H](C)C(=O)O)c3)c3nc(C)ccc23)cc1`: the IC50 was > 50 µM.
The same measure, in the same setting: the same measure for `Cc1c(Oc2ccc(Cl)cc2)c2cccnc2n1Cc1cc(O[C@@H](C)C(=O)O)ccc1F`: > 50 µM.
The same measure, in the same setting: the same measure for `Cc1c(Oc2ccc(Cl)cc2)c2ccc(F)nc2n1Cc1ccc(Cl)c(O[C@@H](C)C(=O)O)c1`: > 50 µM; for `COc1ccc(C(=O)c2c(C)n(Cc3cc(O[C@@H](C)C(=O)O)ccc3F)c3nc(OC)ccc23)cc1`: > 50 µM.

Another data set deals with T3, Peroxisome proliferator-activated receptor alpha (Homo sapiens, UniProt Q07869).
T3 sequence (Q07869 whole entry): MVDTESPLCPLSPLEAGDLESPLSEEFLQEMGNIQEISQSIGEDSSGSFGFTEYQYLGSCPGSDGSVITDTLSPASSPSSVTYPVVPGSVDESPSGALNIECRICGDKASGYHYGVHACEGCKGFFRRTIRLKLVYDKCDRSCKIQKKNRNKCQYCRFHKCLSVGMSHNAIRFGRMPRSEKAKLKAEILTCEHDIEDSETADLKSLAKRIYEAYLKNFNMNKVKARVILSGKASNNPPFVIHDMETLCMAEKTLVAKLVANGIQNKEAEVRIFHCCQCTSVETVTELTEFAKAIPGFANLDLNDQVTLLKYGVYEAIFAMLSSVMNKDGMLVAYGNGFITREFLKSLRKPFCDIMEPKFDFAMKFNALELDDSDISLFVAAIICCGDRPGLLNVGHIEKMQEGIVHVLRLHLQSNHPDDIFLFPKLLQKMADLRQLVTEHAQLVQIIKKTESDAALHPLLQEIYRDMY
Nature of the data set: Binding affinity to human PPARalpha.
Conditions: not given
`COc1ccc(C(=O)c2c(C)n(Cc3cc(O[C@@H](C)C(=O)O)ccc3F)c3ncccc23)cc1`: the IC50 is > 50 µM.
Same read-out and setting: the same measure for `COc1ccc(C(=O)c2c(C)n(Cc3cccc(O[C@@H](C)C(=O)O)c3)c3nc(C)ccc23)cc1`: > 50 µM; for `Cc1c(Oc2ccc(Cl)cc2)c2cccnc2n1Cc1cc(O[C@@H](C)C(=O)O)ccc1F`: > 50 µM.
Same read-out and setting: the same measure for `Cc1c(Oc2ccc(Cl)cc2)c2ccc(F)nc2n1Cc1ccc(Cl)c(O[C@@H](C)C(=O)O)c1`: > 50 µM.
On the same count and under the same terms, the same measure for `COc1ccc(C(=O)c2c(C)n(Cc3cc(O[C@@H](C)C(=O)O)ccc3F)c3nc(OC)ccc23)cc1`: > 50 µM.

A further data set concerns Mus musculus. Nature of the data set: Antiglycemic activity in db/db mouse assessed as glucose correction at 20 mg/kg, po administered daily for 11 days.
Conditions: not given
The class given is functional.
With `COc1ccc(C(=O)c2c(C)n(Cc3cc(O[C@@H](C)C(=O)O)ccc3F)c3ncccc23)cc1`, the Activity worked out at 44%.

The subject of a further data set is Mus musculus. Nature of the data set: Antiglycemic activity in db/db mouse assessed as glucose correction at 10 mg/kg, po administered daily for 11 days. It counts as functional.
Conditions: not given
On to `COc1ccc(C(=O)c2c(C)n(Cc3cccc(O[C@@H](C)C(=O)O)c3)c3nc(C)ccc23)cc1`, for which the Activity is on record as 42%.
Same read-out and setting: the same measure for `COc1ccc(C(=O)c2c(C)n(Cc3cc(O[C@@H](C)C(=O)O)ccc3F)c3nc(OC)ccc23)cc1`: 33%.

The next data set concerns the target Thromboxane A2 receptor (Homo sapiens) (UniProt P21731). Nature of the data set: Inhibition of TXA2 receptor at 10 uM.
Conditions: not given
Regarding `COc1ccc(C(=O)c2c(C)n(Cc3cc(O[C@@H](C)C(=O)O)ccc3F)c3ncccc23)cc1`, the inhibition turned out to be 64%.

As usually defined, the half-life is the time needed for the level to fall by half in the phase considered. For orientation: bioavailability means dose-corrected exposure relative to a reference, in per cent. By EC50 is commonly meant the concentration that produces a half-maximal response. As a reminder, the IC50 is the concentration needed to halve the response being measured. Broadly, the inhibition is the share of the control response that was lost under treatment.
